# Measured values taken from patent US9457044B2, “Methods and compositions for wound healing” (CoDa Therapeutics, Inc., priority 2006, dated 2016).
# Tests used:
# Cx43 mRNA = assay: Real-Time PCR of Cx43 mRNA at skin wound sites; type: in vivo, mice
# Method: (§1) Male, 8 week old, ICR mice were used in the following experiments. All the mice were kept under specific pathogen-free conditions in an environmentally controlled clean room at University College London and all the experiments were carried out under UK Home Office regulations. Mice were anaesthetized by halothane inhalation. Four full-thickness excisional wounds of 6 mm diameter were made on the shaved back on either side of the dorsal midline with a 6 mm biopsy punch (Kai Industries). To each pair of wounds a single topical application of 50 μl of 1 μM Cx43 as ODN (SEQ. ID No. 2) (Sigma-Genosys) in 30% Pluronic F-127 gel (Sigma-Aldrich), chilled on ice, was made to one wound, and an identical application of 1 μM sense control sODNs was made to the other. […] R. and Becker, D. L. (2003). Targeting connexin 43 expression accelerates the rate of wound repair. Curr Biol 13, 1697-703). Each wound region was digitally photographed at the indicated time intervals, and the areas of the wounds were calculated. All wound areas were expressed as percentages of the initial wound areas. In some series of experiments, wounds and their surrounding area, including the scab and epithelial margins, were harvested with an 8 mm biopsy punch (Kai Industries) at the indicated time intervals after mice were killed with an overdose of chloroform. A minimum of eight mice were used for each time point examined.
# Total RNA was extracted from skin wound samples using TRIzol Reagent (Invitrogen), according to the manufacturer's instructions. Ten micrograms of total RNA was reverse-transcribed into cDNA using the SuperScript First-Strand Synthesis System for RT-PCR (Invitrogen).
# Gene specific primers and probe were obtained as TaqMan® Gene Expression Assays (Applied Biosystems) for Cx43, Ccl2, Co1α1, TNFα and TGFβ1. The enzyme and buffer system was purchased as TaqMan® Universal PCR Master Mix (Applied Biosystems). Each sample was analyzed in duplicate. Amplification and real-time detection was performed in the DNA Engine Opticon®2 (MJ Research Inc.). […]
# Cx43 protein [1] = assay: Cx43 protein levels / immunostaining at skin wound sites; type: in vivo, mice
# Method: as §1
# Immunostaining for connexin 43, blood vessels or a smooth muscle actin was carried out on cryostat sections of wounds. Sections were fixed in acetone at 4° C. for 5 minutes prior to blocking for 45 minutes. Incubation in primary antibody was for one hour at the following dilutions: rabbit anti-Cx43 (Sigma) 1:3,000; isoLectin B_FITC 1:2000; von Willebrand Factor (rabbit Dako) 1:400; anti-α smooth muscle actin (Sigma) 1:400 at room temperature. Sections were washed for 3×5 minutes in PBS before a one hour incubation in anti-rabbit-FITC secondary antibody (Dako) 1:200 at room temperature. Washing 3×5 minutes in PBS, in some cases with 1 μM bis-benzimide (Sigma) in the first wash as a nuclear counter stain, and mounted in Citifluor (Citifluor, London, UK). Sections were imaged by confocal microscopy with all parameters kept constant to allow direct comparison of digital images.
# fibroblast like cells = assay: Fibroblast-like cell count at wound margin (rhodamine phalloidin/DAPI); type: in vivo, mice; settings: 2 day wounds; P<0.01
# Method: as §1, with “In some series of experiments, wounds and their surrounding area, including the scab and epithelial margins, were harvested with an 8 mm biopsy punch (Kai Industries) at the indicated time intervals after mice were killed with an overdose of chloroform. A minimum of eight mice were used for each time point examined.” left out
# A treatment-blinded observer counted MPO-positive neutrophils and F4/80-positive macrophages in the wound bed (defined as the area surrounded by unwounded skin, fascia, regenerated epidermis, and eschar) in 3 random high-power fields of 0.332 mm^2. […]
# collagen type 1α1 = assay: Real-Time PCR of Col1α1 at wound sites; design: species or system mice; settings: mouse, in vivo
# Method: as §1, with “In some series of experiments, wounds and their surrounding area, including the scab and epithelial margins, were harvested with an 8 mm biopsy punch (Kai Industries) at the indicated time intervals after mice were killed with an overdose of chloroform. A minimum of eight mice were used for each time point examined.” left out
# Gene specific primers and probe were obtained as TaqMan® Gene Expression Assays (Applied Biosystems) for Cx43, Ccl2, Co1α1, TNFα and TGFβ1. […] Each sample was analyzed in duplicate. […]
# [2] = system: human limbal epithelial cells; assay: Human limbal rim-denuded pig stromal matrix chimera re-epithelialisation; type: cell-based; settings: treated at day one; controls 7 to 14 days
# Method: Human limbal rims returned from surgery after excision of the central corneas for keratoplasty (transplant) were placed into air liquid interface organotypic culture and a denuded pig stromal extracellular matrix inserted into the central region (FIG. 14). The pig stromal matrix was denuded (cells removed) by freeze-thawing in liquid nitrogen.
# The chimeras were grown for up to 2 weeks at which time the human limbal epithelial cells have re-epithelialised the pig stroma with a normal 5-7 cell layer fully differentiated epithelium. In addition, human limbal stromal keratocytes have proliferated and migrated across the limbal rim—stromal insert to repopulate the pig stromal matrix with human keratocytes.
# In a further experiment the chimeras were treated with connexin 43 specific antisense ODNs at day one.
# Cx43 protein [3] = settings: within two hours; Becker 1999, McGonnell 2001, Qiu 2003; cited from earlier work
sequence,measurement,setting,value
"GTAATTGCGGCAGGAGGAATTGTTTCTGTC (antisense GTAATTGCGGCAGGAGGAATTGTTTCTGTC; in Pluronic F-127 gel, further chemistry not given here) [Cx43 asODN]",expression of Cx43 mRNA relative to GAPDH,Cx43 mRNA; 7 days after the injury,4.6 units
same,reduction of Cx43 mRNA versus control sODN-treated wounds,"Cx43 mRNA; one day after injury, P<0.05",37%
same,expression of Cx43 mRNA relative to GAPDH,"Cx43 mRNA; one day after injury, single topical 50 μl of 1 μM in 30% Pluronic F-127 gel",2.95 units
same,Cx43 protein immunostaining in epidermis and dermis of wound edge,"Cx43 protein [1]; day 1, compared to controls",very low levels
same,Cx43 protein immunostaining of wound,Cx43 protein [1]; day 2,some Cx43 staining had returned to the dermis of the Cx43 asODN-treated wound but the level was still very low in the epidermis
same,"Cx43 staining, treated versus untreated",Cx43 protein [1]; day 7,no obvious difference
same,duration of Cx43 protein down-regulation in wound-site epidermis and dermis,Cx43 protein [1]; delivered from Pluronic F-127 slow-release gel,at least 24 hours
same,protein levels of Cx43 in the epidermis and dermis,"Cx43 protein [1]; within two hours of treatment, delivery from the time of injury",markedly reduced
same,number of elongated fibroblast like cells at the wound margin (mean per field),fibroblast like cells,99.2
same,collagen type 1α1 in treated wounds,collagen type 1α1,increased
same,time to full epithelial covering of the pig stroma,[2],≤ 3 days
same,knockdown of Cx43 protein at the site of delivery,Cx43 protein [3],significant knockdown
